Results on six compounds are retold here after ChEMBL document CHEMBL1201862, “PubChem BioAssay data set” (2004).

Calls of active or inactive are those of the source.

One assay has as its target Cytochrome P450 2D6 (Homo sapiens, UniProt P10635). The experiment in a line: qHTS Assay for Inhibitors and Substrates of Cytochrome P450 2D6. [Related pubchem assays: 410 ]. The assay is classed as ADME. To be noted: read-out: Potency.
A short description of assay [1]: Luminescence Cell-Based Dose Confirmation HTS to Identify Activators of 5'UTR Stem-Loop Driven Alpha-Synuclein mRNA Translation in H4 Neuroglioblastoma Cells. [Related pubchem assays: 1829 (Project Summary), 1814 (Primary HTS)]. Type of assay: functional.
In assay [2] the target is Lysosomal acid glucosylceramidase (Homo sapiens, UniProt P04062). Put plainly: Dose response cell-based high throughput screening assay to identify enhancers of beta-glucosidase activity. [Related pubchem assays: 784 ]. Type of assay: functional.
The nature of assay [3]: Luminescence Cell-Based Dose Response HTS to Identify Activators of Luciferase Translation or Activity in H4 […] Cells. [Related pubchem assays: 1829 (Project Summary), 1814 (Primary HTS)]. The assay is classed as functional.
The test system of a further assay is H4. Put plainly: Luminescence Cell-Based Dose Response HTS to Identify Activators of 5'UTR Stem-Loop Driven Prion Protein mRNA Translation in H4 Neuroglioblastoma Cells. [Related pubchem assays: 1829 (Project Summary), 1814 (Primary HTS)]. The assay is classed as functional. To be noted: Homo sapiens.
Assay [4] concerns the target G-protein coupled receptor 35 (Homo sapiens, UniProt Q9HC97). The experiment in a line: GPR35 antagonists blocking zaprinast-driven arrestin recruitment, primary screen, imaging, U2OS, beta-arrestin-GFP, zaprinast agonist (AID 2058).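 Also: antagonist potency meaning inhibition of agonist-induced arrestin redistribution.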 Type of assay: functional. (Recruitment of arrestin is a read-out of receptor activation apart from second messengers.)
In another assay the target is Protein Rev (Human immunodeficiency virus type 1 group M subtype B (isolate HXB2)(HIV-1), UniProt P04618). The experiment in a line: inhibitors of Rev binding to RRE RNA, dose response, biochemical, fluorescence polarization, HIV-1 (AID 434976). Further details: species or system Human immunodeficiency virus 1. On the technique in general: Polarisation of emitted light reports the rotation of a fluorescent probe.

The target of assay [5] is Female germline-specific tumor suppressor gld-1 (Caenorhabditis elegans, UniProt Q17339). The experiment in a line: inhibitors of GLD-1 binding to TGE RNA, dose response, biochemical, fluorescence polarization, C. elegans (AID 2802).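 Also: fluorescence polarization of labeled TGE RNA bound by purified gld-1 protein.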
The target of assay [6] is T1, Polyadenylate-binding protein 1 (Homo sapiens, UniProt P11940). The experiment in a line: PABP1 MLLE–PAM2 interaction inhibitors, dose response, miRNA deadenylation inhibitor project, biochemical, fluorescence polarization, Cy5-PAM2 peptide, secondary (AID 602260). Type of assay: functional. To be noted: read-out: IC50_Mean.
The target in assay [7] is T1, Polyadenylate-binding protein 1. Put plainly: PABP1 MLLE–PAM2 binding inhibitor potency, dose response, biochemical, fluorescence polarization, FITC-PAM2 peptide (AID 602259). Type of assay: functional. To be noted: read-out: IC50_Mean.
A further assay addresses T2, Protein Tat (Human immunodeficiency virus type 1 group M subtype B (isolate HXB2)(HIV-1), UniProt P04608).
T2 sequence (P04608 whole entry): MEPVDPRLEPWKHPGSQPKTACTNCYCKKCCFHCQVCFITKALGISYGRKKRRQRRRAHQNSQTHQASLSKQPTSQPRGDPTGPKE
Type of assay: functional.

Assay [8] in a line: THP-1 cell cytotoxicity, dose response, cytotoxicity control for Vif-APOBEC3G degradation inhibitor project, THP-1 cells (AID 1117359). Type of assay: functional. To be noted: Human immunodeficiency virus 1, THP-1.
Assay [9] deals with T3, Neuropeptides B/W receptor type 1 (Homo sapiens, UniProt P48145).
T3 sequence (P48145 whole entry): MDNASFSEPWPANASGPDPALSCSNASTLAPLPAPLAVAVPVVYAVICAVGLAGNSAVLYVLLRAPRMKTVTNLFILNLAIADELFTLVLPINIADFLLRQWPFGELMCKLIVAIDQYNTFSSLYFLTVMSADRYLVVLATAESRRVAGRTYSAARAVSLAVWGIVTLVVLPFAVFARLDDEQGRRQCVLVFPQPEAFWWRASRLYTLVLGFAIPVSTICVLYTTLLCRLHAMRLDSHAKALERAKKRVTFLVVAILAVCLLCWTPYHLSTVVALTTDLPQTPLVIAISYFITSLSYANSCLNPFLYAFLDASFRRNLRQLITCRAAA
The experiment in a line: Fluorescence-based dose response cell-based high throughput screening assay to identify antagonists of the G-protein coupled receptor 7 (GPR7). [Related pubchem assays: 1952 (Screening assay (GPR7 antagonists).), 1880 (Summary AID.)]. Type of assay: functional.

Assay [10] addresses T4, Melanin-concentrating hormone receptor 1 (Homo sapiens, UniProt Q99705). Put plainly: Fluorescence-based counterscreen for antagonists of the G-protein coupled receptor 7 (GPR7): cell-based high throughput dose response assay to identify antagonists of the melanin-concentrating hormone receptor 1 (MCHR1). Type of assay: functional. In general terms: A counterscreen serves to expose hits that act by an unwanted route or on another target.

Assay [11] has as its target T4, Melanin-concentrating hormone receptor 1. Put plainly: Late-stage fluorescence-based counterscreen for antagonists of the G-protein coupled receptor 7 (GPR7): cell-based dose response assay to identify antagonists of the melanin-concentrating hormone receptor 1 (MCHR1). [Related pubchem assays (depositor defined):AID1861, AID1880, AID1952, AID2148, AID2251, AID2257, AID485339]. Type of assay: functional.

In the next assay the test system is HEK293. The experiment in a line: Fluorescence-based counterscreen for potentiators or agonists of NPY-Y2: cell-based high-throughput dose response assay to identify inhibitors of cyclic nucleotide gated ion channel (CNGC) activity. In this assay, the parental HEK293 cell line transfected with a cyclic-nucleotide gated ion channel (CNGC)-based cAMP sensor is used to measure inhibition of isoproterenol-induced CNGC activity by test compound. The assay is classed as functional. The following applies: Homo sapiens.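 Also: stimulus is 1 µM isoproterenol at EC100 plus PDE inhibitor Ro 20-1724 at 25 µM.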

Assay [12] deals with T5, Neuropeptide Y receptor type 2 (Homo sapiens, UniProt P49146).
T5 sequence (P49146 whole entry): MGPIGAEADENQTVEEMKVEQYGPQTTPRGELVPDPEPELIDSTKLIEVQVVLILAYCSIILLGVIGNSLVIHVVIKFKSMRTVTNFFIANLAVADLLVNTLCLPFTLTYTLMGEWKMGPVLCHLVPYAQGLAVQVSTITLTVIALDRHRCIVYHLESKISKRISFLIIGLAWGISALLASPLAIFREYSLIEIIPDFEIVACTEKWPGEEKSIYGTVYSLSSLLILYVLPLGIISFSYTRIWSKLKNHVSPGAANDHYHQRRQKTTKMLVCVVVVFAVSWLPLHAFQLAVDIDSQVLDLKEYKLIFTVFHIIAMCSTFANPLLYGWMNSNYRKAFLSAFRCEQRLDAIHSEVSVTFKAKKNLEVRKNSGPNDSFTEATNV
Put plainly: Fluorescence-based cell-based high-throughput dose response assay for agonists of NPY-Y2. [Related pubchem assays: 1703 (Screening assay (CNGC inhibitors).), 1359 (Screening assay (NPY-Y2 potentiators or agonists).), 1304 (Screening assay (NPY-Y1 potentiators or agonists).), 1710 (Screening assay (NPY-Y2 agonists).), 1791 (Summary AID.)]. Type of assay: functional.

Assay [13] concerns the target T6, Neuropeptide Y receptor type 1 (Homo sapiens, UniProt P25929).
T6 sequence (P25929 whole entry): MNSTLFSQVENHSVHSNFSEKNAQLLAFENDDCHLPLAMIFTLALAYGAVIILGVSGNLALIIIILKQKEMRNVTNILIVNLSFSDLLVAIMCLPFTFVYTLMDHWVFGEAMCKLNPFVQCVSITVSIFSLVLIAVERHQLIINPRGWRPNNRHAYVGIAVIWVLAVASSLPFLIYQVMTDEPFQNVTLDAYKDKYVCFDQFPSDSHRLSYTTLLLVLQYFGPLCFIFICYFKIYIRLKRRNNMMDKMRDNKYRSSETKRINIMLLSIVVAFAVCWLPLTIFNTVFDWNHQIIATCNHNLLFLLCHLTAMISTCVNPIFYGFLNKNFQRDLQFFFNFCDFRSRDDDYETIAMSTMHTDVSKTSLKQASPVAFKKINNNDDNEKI
Put plainly: Fluorescence-based counterscreen for agonists of NPY-Y2: cell-based high-throughput dose response assay for agonists of NPY-Y1. The assay is classed as functional.

T1 sequence (P11940 whole entry): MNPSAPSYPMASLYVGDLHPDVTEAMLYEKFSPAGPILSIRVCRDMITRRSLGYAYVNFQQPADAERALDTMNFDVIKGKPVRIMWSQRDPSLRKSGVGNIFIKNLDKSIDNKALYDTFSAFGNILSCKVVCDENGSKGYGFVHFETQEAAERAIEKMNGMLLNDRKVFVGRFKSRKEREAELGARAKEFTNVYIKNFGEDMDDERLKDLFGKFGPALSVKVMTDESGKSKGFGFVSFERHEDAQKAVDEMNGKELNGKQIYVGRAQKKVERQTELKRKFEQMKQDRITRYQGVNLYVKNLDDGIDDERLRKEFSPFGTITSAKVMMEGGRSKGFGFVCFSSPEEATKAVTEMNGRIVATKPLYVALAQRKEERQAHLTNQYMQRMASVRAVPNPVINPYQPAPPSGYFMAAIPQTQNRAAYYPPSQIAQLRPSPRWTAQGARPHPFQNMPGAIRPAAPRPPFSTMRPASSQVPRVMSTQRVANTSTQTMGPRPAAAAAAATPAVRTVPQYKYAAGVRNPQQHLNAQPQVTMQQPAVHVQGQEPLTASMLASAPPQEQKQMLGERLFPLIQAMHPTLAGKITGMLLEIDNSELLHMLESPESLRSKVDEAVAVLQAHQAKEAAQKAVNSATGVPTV
T4 sequence (Q99705 whole entry): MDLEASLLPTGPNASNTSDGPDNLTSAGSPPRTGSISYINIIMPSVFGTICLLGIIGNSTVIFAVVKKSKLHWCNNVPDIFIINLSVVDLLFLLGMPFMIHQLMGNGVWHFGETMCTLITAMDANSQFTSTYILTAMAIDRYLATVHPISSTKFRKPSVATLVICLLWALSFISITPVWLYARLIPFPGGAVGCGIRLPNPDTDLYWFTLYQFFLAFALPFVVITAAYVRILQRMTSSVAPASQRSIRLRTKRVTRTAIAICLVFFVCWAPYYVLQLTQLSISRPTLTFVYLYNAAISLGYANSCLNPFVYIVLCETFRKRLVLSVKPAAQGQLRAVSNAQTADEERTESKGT
Lysosomal acid glucosylceramidase, sequence (P04062 whole entry): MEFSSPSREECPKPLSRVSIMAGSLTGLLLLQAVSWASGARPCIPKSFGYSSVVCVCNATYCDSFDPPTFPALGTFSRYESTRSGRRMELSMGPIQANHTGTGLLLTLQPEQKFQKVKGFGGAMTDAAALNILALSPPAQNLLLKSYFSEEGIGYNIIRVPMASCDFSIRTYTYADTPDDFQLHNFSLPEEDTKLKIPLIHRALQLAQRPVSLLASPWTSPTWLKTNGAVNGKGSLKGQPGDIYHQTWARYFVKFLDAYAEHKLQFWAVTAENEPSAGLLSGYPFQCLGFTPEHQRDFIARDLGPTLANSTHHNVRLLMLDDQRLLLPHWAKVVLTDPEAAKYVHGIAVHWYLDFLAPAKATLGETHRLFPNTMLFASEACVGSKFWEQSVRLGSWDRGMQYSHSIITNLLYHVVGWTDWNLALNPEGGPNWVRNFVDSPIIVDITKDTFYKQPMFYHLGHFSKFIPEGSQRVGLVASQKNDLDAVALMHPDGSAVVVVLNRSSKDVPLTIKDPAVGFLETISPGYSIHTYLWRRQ
Cytochrome P450 2D6, sequence (P10635 whole entry): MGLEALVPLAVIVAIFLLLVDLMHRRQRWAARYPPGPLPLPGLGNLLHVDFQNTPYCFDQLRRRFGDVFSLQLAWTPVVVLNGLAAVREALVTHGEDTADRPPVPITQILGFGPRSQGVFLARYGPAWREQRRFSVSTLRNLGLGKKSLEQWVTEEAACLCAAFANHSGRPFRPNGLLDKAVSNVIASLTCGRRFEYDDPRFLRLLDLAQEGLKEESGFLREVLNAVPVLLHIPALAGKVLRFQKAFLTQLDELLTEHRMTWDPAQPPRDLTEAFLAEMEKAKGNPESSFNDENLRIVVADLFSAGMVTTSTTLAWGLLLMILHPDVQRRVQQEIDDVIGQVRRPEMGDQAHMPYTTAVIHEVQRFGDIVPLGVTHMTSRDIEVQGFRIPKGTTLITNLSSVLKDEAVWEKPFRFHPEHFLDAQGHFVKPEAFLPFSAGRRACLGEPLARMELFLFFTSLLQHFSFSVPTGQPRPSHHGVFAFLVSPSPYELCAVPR
G-protein coupled receptor 35, sequence (Q9HC97 whole entry): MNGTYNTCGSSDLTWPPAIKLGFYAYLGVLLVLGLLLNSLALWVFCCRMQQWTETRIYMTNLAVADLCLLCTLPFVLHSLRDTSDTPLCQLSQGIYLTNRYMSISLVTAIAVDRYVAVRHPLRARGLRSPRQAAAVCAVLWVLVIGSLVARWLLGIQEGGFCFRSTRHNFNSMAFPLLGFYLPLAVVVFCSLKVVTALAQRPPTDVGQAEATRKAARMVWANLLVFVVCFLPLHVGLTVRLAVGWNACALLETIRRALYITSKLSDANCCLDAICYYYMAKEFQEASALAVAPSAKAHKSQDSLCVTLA
Protein Rev, sequence (P04618 whole entry): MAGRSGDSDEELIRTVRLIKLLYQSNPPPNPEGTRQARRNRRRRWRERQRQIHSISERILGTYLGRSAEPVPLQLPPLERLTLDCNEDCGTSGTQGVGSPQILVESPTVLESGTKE
Female germline-specific tumor suppressor gld-1, sequence (Q17339 whole entry): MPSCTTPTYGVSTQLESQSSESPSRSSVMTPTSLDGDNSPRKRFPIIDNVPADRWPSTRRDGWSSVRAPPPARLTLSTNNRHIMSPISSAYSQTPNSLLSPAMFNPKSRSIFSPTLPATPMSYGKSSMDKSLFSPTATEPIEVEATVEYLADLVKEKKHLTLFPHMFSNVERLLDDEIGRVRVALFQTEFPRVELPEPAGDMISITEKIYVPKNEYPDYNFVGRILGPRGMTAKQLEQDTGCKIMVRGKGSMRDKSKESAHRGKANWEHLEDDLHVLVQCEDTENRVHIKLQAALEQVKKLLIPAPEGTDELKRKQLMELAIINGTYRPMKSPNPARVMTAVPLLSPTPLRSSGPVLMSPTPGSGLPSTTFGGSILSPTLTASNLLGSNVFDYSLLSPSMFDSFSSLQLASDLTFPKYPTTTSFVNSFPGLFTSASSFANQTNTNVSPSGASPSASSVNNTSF

In the case of `COc1ccc2c(c1O)-c1c(OC)c(OC)cc3c1[C@@H](C2)N(C)CC3`, at Cytochrome P450 2D6, the AC50 was 15.8 µM (inconclusive).
What is called EC50 is the concentration that produces a half-maximal response. Take `COC(=O)c1sc(NC(=O)c2csc3c2CCCC3)nc1C`: the EC50 in [1] is 0.155 µM (active); in [2] it was > 50 µM (not active); in [3] it was 0.575 µM (active); in the assay with H4, 1.8 µM (active).
In the case of `CCCCCOC(=O)c1ccc(NC(=O)c2cccc(NC(=O)c3ccccc3C(=O)O)c2)cc1`, the IC50 in assay [4] was 1 µM (active).
A word on the CC50: it is the concentration that lowers cell viability or growth by half. Take `Clc1ccc(/C=N/c2c(-c3ccco3)nc3ccccn23)cc1`: the IC50 on Protein Rev is > 75.4 µM (not active); in [5], 2.59 µM (active); in assay [6], > 66 µM (inactive); in [7] it was 59.2 µM (inactive); at Protein Tat, 6.48 µM (inconclusive). The CC50 in [8] is > 40 µM (active).
`COc1ccc(Oc2c(Cl)cnn(-c3ccc(C)cc3)c2=O)cc1`: the IC50 in assay [9] is 2.94 µM (active); in assay [10] it was 23.6 µM (not active); in assay [11] it was 17 µM (inactive).
In the case of `COc1ccc(-n2nnnc2SCC(=O)NCCc2ccccc2)cc1OC`, the EC50 (in the assay on HEK293; in assay [12]; in assay [13]) was > 35.4 µM (not active) each time.
